Experiment [1] has as its system wild-type E. coli ATCC 25922. The experiment can be described thus: microbe, parasite or virus in culture. It counts as cell-based, Escherichia coli. The following applies: ATCC 25922; for MICcombo: antibiotic with dUSTBβP 3 at 8 μg/mL; for MIC: Escherichia coli, ATCC25922, 18 h, antibiotic alone (Supplementary Table 7), read-out: MICantibiotic. How it is done:
(§1) The adjuvant activities of dUSTBβPs were evaluated using checkerboard assay as previously described ([Berry et al., 2019]). Overnight-grown bacterial culture diluted in saline to 0.5 McFarland turbidity was successively diluted 1:50 in MHB to achieve a final concentration of 5 × 10^5 CFU/mL for inoculation. The antibiotic and adjuvant were serially diluted 2-fold along the x-axis and y-axis, respectively, resulting in varying concentrations of both agents in each well. Subsequently, the 96-well plate was incubated with equal volumes of bacterial inoculum at 37°C for 18 h. Confirmation of turbidity was done using an EMax Plus microplate reader (Molecular Devices, United States) at a wavelength of 590 nm. Wells comprising MHB alone or in the presence of bacterial cells were used as negative or positive controls, respectively. Fractional inhibitory concentration index (FICI) is determined by adding the FICs of both antibiotic and adjuvant. The FIC of the antibiotic is calculated by dividing the MIC of the antibiotic in the presence of the adjuvant by the MIC of the antibiotic alone. Similarly, the FIC of the adjuvant is calculated by dividing the MIC of the adjuvant in the presence of the antibiotic by the MIC of the adjuvant alone. FICI ≤ 0.5, 0.5 < x ≤ 4, and >4 were deemed synergistic, additive, and antagonistic, respectively ([Meletiadis et al., 2010]).

For experiment [2], the system named is MDR A. baumannii clinical isolates. The experiment can be described thus: Resistance phenotype (MICs of antibiotics) of MDR clinical isolates. It counts as cell-based, Acinetobacter baumannii. The note with it: Acinetobacter baumannii, read-out: MIC.
Experiment [3] deals with wild-type A. baumannii ATCC 17978. The experiment can be described thus: Checkerboard assay. It counts as cell-based, Acinetobacter baumannii. The note with it: ATCC 17978; for MICcombo: antibiotic with dUSTBβP 3 at 8 μg/mL; for MIC: Acinetobacter baumannii, ATCC17978, 18 h, antibiotic alone (Supplementary Table 7), read-out: MICantibiotic.
Source text: as §1, with “Overnight-grown” for “The adjuvant activities of dUSTBβPs were evaluated using checkerboard assay as previously described ([Berry et al., 2019]). Overnight-grown”, “Subsequently, the 96-well plate was incubated with equal volumes of bacterial inoculum at 37°C for 18 h.” left out, “alone.” for “alone. FICI ≤ 0.5, 0.5 < x ≤ 4, and >4 were deemed synergistic, additive, and antagonistic, respectively ([Meletiadis et al., 2010]).”

The test system of experiment [4] is MDR K. pneumoniae clinical isolates. As to the kind of experiment: Resistance phenotype (MICs of antibiotics) of MDR clinical isolates. The class given is cell-based, Klebsiella pneumoniae. The following applies: Klebsiella pneumoniae, read-out: MIC.
Experiment [5] relates to wild-type P. aeruginosa PAO1. As to the kind of experiment: microbe, parasite or virus in culture. It counts as cell-based, Pseudomonas aeruginosa. The following applies: PAO1; for MICcombo: antibiotic with dUSTBβP 3 at 8 μg/mL; for MIC: Pseudomonas aeruginosa, 18 h, antibiotic alone (Supplementary Table 7), read-out: MICantibiotic.
Source text: as §1, with “Overnight-grown” for “The adjuvant activities of dUSTBβPs were evaluated using checkerboard assay as previously described ([Berry et al., 2019]). Overnight-grown”, “Subsequently, the 96-well plate was incubated with equal volumes of bacterial inoculum at 37°C for 18 h.” left out, “alone.” for “alone. FICI ≤ 0.5, 0.5 < x ≤ 4, and >4 were deemed synergistic, additive, and antagonistic, respectively ([Meletiadis et al., 2010]).”

In experiment [6] the test system is MDR E. cloacae clinical isolates. The experiment can be described thus: Resistance phenotype (MICs of antibiotics) of MDR clinical isolates. It counts as cell-based, Enterobacter cloacae. The note with it: Enterobacter cloacae, read-out: MIC.
Experiment [7] has as its system MDR P. aeruginosa clinical isolates. The description is as above. It counts as cell-based, Pseudomonas aeruginosa. The following applies: Pseudomonas aeruginosa.
For experiment [8], the system named is MDR E. coli clinical isolates. The description is as above. It counts as cell-based, Escherichia coli. The following applies: Escherichia coli, read-out: MIC.

Values after ≈ are worked out from the molar mass of the structure shown. Read-outs that look alike come from different tables or passages of the source.

Consider `CNC(C)C1CCC(N)C(OC2C(N)CC(N)C(OC3OCC(C)(O)C(NC)C3O)C2O)O1` (centres unmarked) [Gentamicin], for which the MICcombo in experiment [1] is 1 µg/mL; in experiment [3] it was above 1 µg/mL; in experiment [5] it was 2 µg/mL. For the same molecule, the MIC was 2 µg/mL in experiment [1]; 32 µg/mL (≈ 67 µM) in experiment [2] (AB027); below 0.5 µg/mL in experiment [2] (AB031); above 4 µg/mL in experiment [2] (LAC-4); above 1 µg/mL in experiment [3]; at most 0.5 µg/mL in experiment [4] (113250). In addition, the MIC was at most 0.5 µg/mL in experiment [4] (113254); at most 0.5 µg/mL in experiment [4] (116381); 2 µg/mL (≈ 4.19 µM) in experiment [5]; at most 0.5 µg/mL in experiment [6] (117029); 1 µg/mL (≈ 2.09 µM) in experiment [6] (118564); above 32 µg/mL in experiment [6] (121187). Moreover, the MIC was above 32 µg/mL in experiment [7] (259-96196, read-out: MIC); above 32 µg/mL in experiment [7] (262-101856, read-out: MIC); above 32 µg/mL in experiment [7] (264-104354, read-out: MIC); 32 µg/mL (≈ 67 µM) in experiment [7] (91433, read-out: MIC); at most 0.5 µg/mL in experiment [8] (94393 (mcr-1 +)); 16 µg/mL (≈ 33.5 µM) in experiment [8] (94474 (mcr-1 +)). For the same molecule, in experiment [8] (107115), the MIC was above 32 µg/mL.

With `CC(C)(O/N=C(\C(=O)N[C@@H]1C(=O)N2C(C(=O)[O-])=C(C[n+]3ccccc3)CS[C@H]12)c1csc(N)n1)C(=O)O` [Ceftazidime], the MICcombo in experiment [1] was found to be 0.063 µg/mL; in experiment [3], 8 µg/mL; in experiment [5], 2 µg/mL. Further, the MIC in experiment [1] was 0.25 µg/mL; in experiment [2] (LAC-4), above 16 µg/mL; in experiment [3], 16 µg/mL; in experiment [4] (113250) it was 0.5 µg/mL (≈ 0.915 µM); in experiment [4] (113254) it was at most 0.2 µg/mL; in experiment [4] (116381), 8 µg/mL (≈ 14.6 µM). The MIC in experiment [5] was 2 µg/mL (≈ 3.66 µM); in experiment [6] (117029), 0.5 µg/mL (≈ 0.915 µM); in experiment [6] (118564) it was 0.5 µg/mL (≈ 0.915 µM); in experiment [6] (121187), 0.5 µg/mL (≈ 0.915 µM); in experiment [7] (259-96196), 512 µg/mL (≈ 937 µM); in experiment [7] (262-101856, read-out: MIC) it was 16 µg/mL (≈ 29.3 µM). For the same molecule, the MIC is 128 µg/mL (≈ 234 µM) in experiment [7] (264-104354); 1020 µg/mL (≈ 1870 µM) in experiment [7] (91433); 8 µg/mL (≈ 14.6 µM) in experiment [7] (114228, read-out: MIC); at most 0.25 µg/mL in experiment [8] (94393 (mcr-1 +)); 0.5 µg/mL (≈ 0.915 µM) in experiment [8] (94474 (mcr-1 +)); above 32 µg/mL in experiment [8] (107115).

Consider `COc1c(N2C[C@@H]3CCCN[C@@H]3C2)c(F)cc2c(=O)c(C(=O)O)cn(C3CC3)c12` [Moxifloxacin], for which the MICcombo in experiment [1] was 0.001 µg/mL; in experiment [3], above 0.125 µg/mL; in experiment [5] it was 0.5 µg/mL. For the same molecule, the MIC in experiment [1] was 0.016 µg/mL; in experiment [2] (110193), at most 1 µg/mL; in experiment [2] (AB027), 8 µg/mL (≈ 19.9 µM); in experiment [2] (AB031), 0.12 µg/mL (≈ 0.299 µM); in experiment [3], above 0.125 µg/mL; in experiment [4] (113250), at most 0.06 µg/mL. The MIC in experiment [4] (113254) was at most 0.06 µg/mL; in experiment [4] (116381), above 16 µg/mL; in experiment [5] it was 2 µg/mL (≈ 4.98 µM); in experiment [6] (117029) it was at most 0.06 µg/mL; in experiment [6] (118564), 0.12 µg/mL (≈ 0.299 µM); in experiment [6] (121187) it was 1 µg/mL (≈ 2.49 µM). The MIC in experiment [7] (259-96196, read-out: MIC) is above 16 µg/mL; in experiment [7] (262-101856, read-out: MIC), above 16 µg/mL; in experiment [7] (264-104354, read-out: MIC) it was above 16 µg/mL; in experiment [7] (91433, read-out: MIC), 16 µg/mL (≈ 39.9 µM); in experiment [8] (94393 (mcr-1 +)) it was 1 µg/mL (≈ 2.49 µM); in experiment [8] (94474 (mcr-1 +)), 16 µg/mL (≈ 39.9 µM). In addition, the MIC in experiment [8] (107115) is 16 µg/mL (≈ 39.9 µM).

As for `NC[C@H]1O[C@H](O[C@H]2[C@H](O)[C@@H](O[C@H]3O[C@H](CO)[C@@H](O)[C@H](N)[C@H]3O)[C@H](N)C[C@@H]2N)[C@H](N)C[C@@H]1O` [Tobramycin], the figures for the MICcombo in experiment [1], in experiment [3] and in experiment [5] were 1 µg/mL, above 1 µg/mL and 1 µg/mL, respectively. Also, the MIC in experiment [1] is 2 µg/mL; in experiment [2] (LAC-4), above 4 µg/mL; in experiment [3], above 1 µg/mL; in experiment [4] (113250) it was at most 0.5 µg/mL; in experiment [4] (113254), at most 0.5 µg/mL; in experiment [4] (116381) it was 4 µg/mL (≈ 8.56 µM). The MIC in experiment [5] came out at 1 µg/mL (≈ 2.14 µM); in experiment [6] (117029), 2 µg/mL (≈ 4.28 µM); in experiment [6] (118564) it was 1 µg/mL (≈ 2.14 µM); in experiment [6] (121187) it was 32 µg/mL (≈ 68.4 µM); in experiment [7] (259-96196, read-out: MIC), 256 µg/mL (≈ 548 µM); in experiment [7] (262-101856, read-out: MIC) it was 1020 µg/mL (≈ 2190 µM). The MIC in experiment [7] (264-104354) was 128 µg/mL (≈ 274 µM); in experiment [7] (91433, read-out: MIC), 16 µg/mL (≈ 34.2 µM); in experiment [7] (114228, read-out: MIC) it was 2 µg/mL (≈ 4.28 µM); in experiment [8] (94393 (mcr-1 +)), at most 0.5 µg/mL; in experiment [8] (94474 (mcr-1 +)), 32 µg/mL (≈ 68.4 µM); in experiment [8] (107115) it was 8 µg/mL (≈ 17.1 µM).

These data come from paper PMC8733726, “Dioctanoyl Ultrashort Tetrabasic β-Peptides Sensitize Multidrug-Resistant Gram-Negative Bacteria to Novobiocin and Rifampicin” (Frontiers in Microbiology, 2021).
